Legend:
Type in all cases: in vivo, Amaranthus palmeri
[1] = system: A. palmeri plants; assay: Whole-plant glyphosate treatment of field-collected A. palmeri, injury versus untreated check; conditions: 868 g ae ha plus 2% (w/v) ammonium sulfate
Text: A. palmeri plants used in this study were generated from seeds collected from a field near Manhattan, Kans., USA, where there was incident of lack of control of this population with glyphosate application in the previous season. This field was exposed to frequent applications of glyphosate in Roundup Ready soybean, grown in rotation. Seed of A. palmeri was randomly sampled from ten plants and pooled. Sixty seedlings from the above sample along with a known glyphosate-susceptible (GS) A. palmeri were germinated and seedlings were transplanted individually into Miracle-Gro potting mix (Marysville, Ohio) in 10 cm×10 cm×10 cm plastic pots and watered from top in a greenhouse (25/20° C. temperature; 15/9 h light day/night, supplemented with […] illumination using sodium vapor lamps). At least 20 plants (10 to 12 cm tall) were treated separately with field use rate [868 g ae ha^−1 plus 2% (w/v) ammonium sulfate] or twice the field use rate of glyphosate. […] Plant survival was assessed four weeks after treatment.
In response to glyphosate treatment [868 g ae ha′ plus 2% (w/v) ammonium sulfate], plants showing injury levels of high (>80%) and low (<30%) in comparison to untreated check were grouped as GS and glyphosate-resistant (GR), respectively. […] DNA was quantified on Nanodrop Spectrophotometer.

[2] = system: progeny of GR A. palmeri plants (>80-100 EPSPS copies); assay: Response to 1x glyphosate of progeny from randomly mated glyphosate-resistant (GR) plants grown without selection
Text: (§1) To investigate the evolution of resistance to glyphosate in response to glyphosate selection pressure, we exposed GS plants (<20 EPSPS copies) to glyphosate for one generation to determine the EPSPS copy number and eccDNA variation in each generation and assess the possibility of evolution of resistance to continuous exposure to glyphosate via eccDNA containing EPSPS gene amplification. This process can be repeated for 6 to 8 generations. We also initiated experiments to examine the reversal of glyphosate resistance to susceptibility in the absence of glyphosate selection pressure by growing GR plants (>80-100 EPSPS copies) in the absence of glyphosate selection and generating progenies by random mating. This process can be repeated for 6 to 8 generations. A portion of progenies will be screened for susceptibility or resistance to glyphosate and determine the EPSPS gene copies and presence or absence of eccDNA in each generation.
The progeny generated from random mating of GR plants (>80-100 EPSPS copies) were used in this study. The seed collected from two GR plants (allowed to mate randomly) were planted and seedlings were generated. Approximately 100 plants from each GR plant were grown in the greenhouse without exposure to glyphosate for seed production. Additionally, approximately 127 seedlings from each of the above GR plant were also grown separately and treated with 1× dose of glyphosate to assess their response. Leaf tissue from 40 plants each was also collected for only EPSPS copy number analysis.

[3] = system: GS A. palmeri plants (<20 EPSPS copies); assay: Glyphosate selection of glyphosate-susceptible (GS) seedlings in greenhouse, plant survival
Text: as §1
Approximately 1,009 seedlings were grown in greenhouse and treated with 0.25, 0.5 and 1× glyphosate (1×: 840 g ae/ha). The survivors have been selected for seed production of G-2 seed. Leaf tissue from 40 plants were collected for copy number analysis before the treatment with glyphosate. Additionally, the leaf samples were also collected from plants (at least 5) that survived glyphosate application.

[4] = seedlings from plant GR1, 1x glyphosate, 127 plants treated
[5] = seedlings from plant GR2, 1x glyphosate, 122 plants treated
[6] = glyphosate rate 0.25X (1X: 840 g ae/ha), 160 treated plants
[7] = glyphosate rate 0.5X (1X: 840 g ae/ha), 430 treated plants
[8] = glyphosate rate 1X (1X: 840 g ae/ha), 419 treated plants

SMILES: O=C(O)CNCP(=O)(O)O [Glyphosate, N-(phosphonomethyl) glycine]
- injury level in comparison to untreated check ([1]; plants grouped as GR (low injury)): < 30%
- injury level in comparison to untreated check ([1]; plants grouped as GS (high injury)): > 80%
- % survival ([2]; seedlings from plant GR1, 1x glyphosate): 68%
- Alive [2, 4]: 86
- Dead [2, 4]: 41
- % survival ([2]; seedlings from plant GR2, 1x glyphosate): 72%
- Alive [2, 5]: 88
- Dead [2, 5]: 34
- % survival ([3]; glyphosate rate 0.25X (1X: 840 g ae/ha)): 16%
- Alive [3, 6]: 26
- Dead [3, 6]: 134
- % survival ([3]; glyphosate rate 0.5X (1X: 840 g ae/ha)): 4%
- Alive [3, 7]: 18
- Dead [3, 7]: 412
- % survival ([3]; glyphosate rate 1X (1X: 840 g ae/ha)): 3%
- Alive [3, 8]: 13
- Dead [3, 8]: 406

From US11492629B2, “Extra-chromosomal circular DNA-mediated engineering of plant traits” (Kansas State University Research Foundation, priority 2019, dated 2022)
